The values that follow come from PubChem BioAssay AID1259408 (Genetic Toxicology Data Bank (GENE-TOX), 2018).

Calls of active or inactive are those of the source. No rule for the calls is given here.

The data set relates to GENE-TOX genotoxicity assays, various organisms and cells. Kind of data set: GENE-TOX mutagenicity studies. The conditions noted are these: for call: Assay Type: In vivo carcinogenicity studies.
Where [1] appears, read: Species/Cell Type: Escherichia coli polA (W3119 vs P3478), Assay Type: Rec-assay, DNA effects (bacterial DNA repair), Assay Code: RE1+, Evaluation Type: Evaluation A (Pre-1980).
[2] abbreviates: Species/Cell Type: Fischer rat embryo (RLV/1706) cells, Assay Type: Cell transformation, viral enhanced, Assay Code: CTR+, Evaluation Type: Evaluation A (Pre-1980).
Setting [3] is: Species/Cell Type: Nonhuman, Assay Code: CCG+, Evaluation Type: Evaluation A (Pre-1980).
Setting [4] is: Species/Cell Type: Salmonella typhimurium (one or more of the five standard strains: TA98, TA100, TA1535, TA1537, and TA1538), Assay Type: Histidine reverse gene mutation, Ames assay, Assay Code: SAL+, Evaluation Type: Evaluation A (Pre-1980).
Setting [5] is: Species/Cell Type: Human lymphocytes, Assay Type: Sister-chromatid exchange (SCE) in vitro, Assay Code: SCLT, Evaluation Type: Evaluation B (Post-1980).
The mark [6] stands for this setting: Species/Cell Type: Drosophila melanogaster, Assay Type: Sex-linked recessive lethal gene mutation, Assay Code: SRL-, Evaluation Type: Evaluation A (Pre-1980).
Where [7] appears, read: Species/Cell Type: Mouse embryo (AKR/ME) cells, Assay Type: Cell transformation, Assay Code: CTK-, Evaluation Type: Evaluation A (Pre-1980).
Where [8] appears, read: Species/Cell Type: Saccharomyces cerevisiae, Assay Type: Mitotic recombination or gene conversion, Assay Code: YEC+, Evaluation Type: Evaluation A (Pre-1980).
Setting [9] is: Species/Cell Type: Nonhuman, Assay Type: Sister-chromatid exchange (SCE) in vitro, Assay Code: SC2+D, Dose Response: With dose response, Evaluation Type: Evaluation B (Post-1980).
[10] abbreviates: Species/Cell Type: Nonhuman, Assay Type: Sister-chromatid exchange (SCE) in vitro, Assay Code: SC2+, Evaluation Type: Evaluation B (Post-1980).

Take `O=c1[nH]cc(N(CCCl)CCCl)c(=O)[nH]1`: the mutagenic call reads like this: (Species/Cell Type: Drosophila melanogaster, Assay Type: Sex-linked recessive lethal gene mutation, Assay Code: SRL+, Evaluation Type: Evaluation A (Pre-1980)) “active; positive”; under setting [1], “active; positive”; under setting [2], “active; positive”; (Species/Cell Type: Mouse (BALB/c-3T3) cells, Assay Type: Cell transformation, Assay Code: CTB-, Evaluation Type: Evaluation A (Pre-1980)) “inactive; negative”; (Species/Cell Type: Mouse lymphoma (L5178Y) cells, Assay Type: Forward gene mutation at the thymidine kinase (TK) locus, chromosome aberrations, Assay Code: L51+, Evaluation Type: Evaluation A (Pre-1980)) “active; positive”; (Species/Cell Type: Saccharomyces cerevisiae, Assay Type: Mitotic recombination or gene conversion, Assay Code: YEH+, Evaluation Type: Evaluation A (Pre-1980)) “active; positive”. Moreover, the mutagenic call reads like this: under setting [4], “active; positive”; (Species/Cell Type: Salmonella typhimurium, Assay Type: Forward and reverse gene mutation, host-mediated assay, Assay Code: HMA+, Evaluation Type: Evaluation A (Pre-1980)) “active; positive”. Under setting [3], the call is “active; positive”.

With `NC(=O)N1c2ccccc2C2OC2c2ccccc21` (configuration not stated), the mutagenic call is, setting by setting: under setting [5], “no conclusion”; (Species/Cell Type: Salmonella typhimurium (one or more of the five standard strains: TA98, TA100, TA1535, TA1537, and TA1538), Assay Type: Histidine reverse gene mutation, Ames assay, Assay Code: SALT, Evaluation Type: Evaluation A (Pre-1980)) “no conclusion”.

Regarding `CS(C)=O`, the mutagenic call is “active; positive” (Species/Cell Type: Aspergillus nidulans, Assay Type: Aneuploidy, chromosome aberrations, Assay Code: ASN+, Evaluation Type: Evaluation A (Pre-1980)); “no conclusion” (Species/Cell Type: Aspergillus nidulans, Assay Type: Mitotic recombination, Assay Code: ASGT, Evaluation Type: Evaluation A (Pre-1980)); “no conclusion” (Species/Cell Type: Bacillus subtilis (H17 vs M45), Assay Type: Rec-assay, spot test, DNA effects (bacterial DNA repair), Assay Code: REWT, Evaluation Type: Evaluation A (Pre-1980)); “inactive; negative” (Species/Cell Type: Drosophila melanogaster, Assay Type: Aneuploidy, whole sex chromosome loss, chromosome aberrations, Assay Code: DAC-M, Evaluation Type: Evaluation A (Pre-1980)); “inactive; negative” under setting [6]; “no conclusion” (Species/Cell Type: Drosophila melanogaster, Sex: Male, Assay Type: Heritable translocation test, chromosome aberrations, Assay Code: DHTT, Evaluation Type: Evaluation A (Pre-1980)). The mutagenic call runs as follows: (Species/Cell Type: Escherichia coli polA (W3110 vs P3478), Assay Type: Rec-assay, DNA effects (bacterial DNA repair), Assay Code: RE2-, Evaluation Type: Evaluation A (Pre-1980)) “inactive; negative”; (Species/Cell Type: Escherichia coli polA (W3119 vs P3478), Assay Type: Rec-assay, DNA effects (bacterial DNA repair), Assay Code: RE1T, Evaluation Type: Evaluation A (Pre-1980)) “no conclusion”; (Species/Cell Type: Fischer rat embryo (RLV/1706) cells, Assay Type: Cell transformation, viral enhanced, Assay Code: CTR-, Evaluation Type: Evaluation A (Pre-1980)) “inactive; negative”; under setting [5], “no conclusion”; (Species/Cell Type: Human, Assay Type: Sister-chromatid exchange (SCE) in vitro, Assay Code: SC1T, Evaluation Type: Evaluation B (Post-1980)) “no conclusion”; under setting [7], “inactive; negative”. For the same compound, the mutagenic call by setting is: (Species/Cell Type: Neurospora crassa, Assay Type: Aneuploidy, chromosome aberrations, Assay Code: NEN-, Evaluation Type: Evaluation A (Pre-1980)) “inactive; negative”; (Species/Cell Type: Nonhuman, Assay Type: Sister-chromatid exchange (SCE) in vitro, Assay Code: SC2-, Evaluation Type: Evaluation A (Pre-1980)) “inactive; negative”; (Species/Cell Type: Nonhuman, Assay Type: Sister-chromatid exchange (SCE) in vivo, Assay Code: SC3+, Evaluation Type: Evaluation B (Post-1980)) “active; positive”; (Species/Cell Type: Rodents, Sex: Male, Assay Type: Dominant lethal test, Assay Code: DLTT, Evaluation Type: Evaluation A (Pre-1980)) “no conclusion”; under setting [8], “active; positive”; (Species/Cell Type: Salmonella typhimurium (one or more of the five standard strains: TA98, TA100, TA1535, TA1537, and TA1538), Assay Type: Histidine reverse gene mutation, Ames assay, Assay Code: SAL-, Evaluation Type: Evaluation A (Pre-1980)) “inactive; negative”. Further, the mutagenic call by setting is: (Species/Cell Type: Salmonella typhimurium, Assay Type: Forward and reverse gene mutation, host-mediated assay, Assay Code: HMA-, Evaluation Type: Evaluation A (Pre-1980)) “inactive; negative”; (Species/Cell Type: Syrian hamster embryo (SHE) cells, Assay Type: Cell transformation, clonal assay, Assay Code: CTC-, Evaluation Type: Evaluation A (Pre-1980)) “inactive; negative”. For the same compound, the call (Species/Cell Type: Nonhuman, Assay Code: CCGT, Evaluation Type: Evaluation A (Pre-1980)) is on record as “no conclusion”.

For `COc1cc2c(c(O)c1O)C(=O)c1c(O)cc(C)cc1C2=O`, the mutagenic call under setting [4] was “active; positive”.

Consider `CC(=O)N(O)c1ccc2c(c1)Cc1ccccc1-2`, for which the mutagenic call by setting is: (Species/Cell Type: Chinese hamster lung (V79) cells, Assay Type: Forward gene mutation at the HPRT or ouabain locus, Assay Code: V79+, Evaluation Type: Evaluation A (Pre-1980)) “active; positive”; (Species/Cell Type: Chinese hamster ovary (CHO) cells, Assay Type: Forward gene mutation at the HPRT locus, Assay Code: CHO+, Evaluation Type: Evaluation B (Post-1980)) “active; positive”; (Species/Cell Type: Drosophila melanogaster, Assay Type: Sex-linked recessive lethal gene mutation, Assay Code: SRLT, Evaluation Type: Evaluation A (Pre-1980)) “no conclusion”; under setting [1], “active; positive”; under setting [2], “active; positive”; (Species/Cell Type: Human diploid fibroblasts, Assay Type: Unscheduled DNA synthesis (UDS) in vitro, DNA effects, Assay Code: UDH+D, Dose Response: With dose response, Evaluation Type: Evaluation A (Pre-1980)) “active; positive”. For the same compound, the mutagenic call reads like this: (Species/Cell Type: Human lymphocytes, Assay Type: Sister-chromatid exchange (SCE) in vitro, Assay Code: SCLT, Evaluation Type: Evaluation A (Pre-1980)) “no conclusion”; (Species/Cell Type: Human, Assay Type: Sister-chromatid exchange (SCE) in vitro, Assay Code: SC1+, Evaluation Type: Evaluation B (Post-1980)) “active; positive”; (Species/Cell Type: Human, Assay Type: Sister-chromatid exchange (SCE) in vitro, Assay Code: SC1T, Evaluation Type: Evaluation A (Pre-1980)) “no conclusion”; (Species/Cell Type: Mouse (BALB/c-3T3) cells, Assay Type: Cell transformation, Assay Code: CTB+D, Dose Response: With dose response, Evaluation Type: Evaluation A (Pre-1980)) “active; positive”; under setting [7], “inactive; negative”; (Species/Cell Type: Neurospora crassa, Assay Type: Reverse gene mutation, Assay Code: NER+, Evaluation Type: Evaluation A (Pre-1980)) “active; positive”. Also, the mutagenic call (Species/Cell Type: Nonhuman, Assay Type: Sister-chromatid exchange (SCE) in vitro, Assay Code: SC2+D, Dose Response: With dose response, Evaluation Type: Evaluation A (Pre-1980)) was “active; positive”; the mutagenic call (Species/Cell Type: Rat primary hepatocytes, Assay Type: Unscheduled DNA synthesis (UDS) in vitro, DNA effects, Assay Code: UDP+, Evaluation Type: Evaluation A (Pre-1980)) is “active; positive”; the mutagenic call under setting [8] was “active; positive”; the mutagenic call under setting [4] is “active; positive”; the mutagenic call (Species/Cell Type: Syrian hamster embryo (SHE) cells, Assay Type: Cell transformation, clonal assay, Assay Code: CTC+D, Dose Response: With dose response, Evaluation Type: Evaluation A (Pre-1980)) is “active; positive”. Besides, the call under setting [3] was “active; positive”.

With `OC1C=Cc2c(c3cc4ccccc4cc3c3ccccc23)[C@H]1O` (some centres not stated), the mutagenic call under setting [9] is “active; positive”.

`N#CCCN1CC1`: the mutagenic call (Species/Cell Type: Schizosaccharomyces pombe, Assay Type: Reverse gene mutation, Assay Code: YEZ+, Evaluation Type: Evaluation A (Pre-1980)) was “active; positive”.

For the compound `Nc1ccc(Cl)cc1N`, the call under setting [3] was “active; positive”.

On to `CCCCC(CC)COC(=O)c1ccccc1C(=O)O` (configuration not stated), for which the mutagenic call is, setting by setting: (Species/Cell Type: Chinese hamster ovary (CHO) cells, Assay Type: Forward gene mutation at the HPRT locus, Assay Code: CHOT, Evaluation Type: Evaluation B (Post-1980)) “no conclusion”; (Species/Cell Type: Nonhuman, Assay Type: Sister-chromatid exchange (SCE) in vitro, Assay Code: SC2-, Evaluation Type: Evaluation B (Post-1980)) “inactive; negative”.

As for `COP(=S)(Oc1cc(Cl)c(Br)cc1Cl)c1ccccc1` (configuration not stated), the mutagenic call under setting [10] was “active; positive”.

For `O=[As](=O)O[As](=O)=O`, the mutagenic call is “active; positive” (Species/Cell Type: Bacillus subtilis (H17 vs M45), Assay Type: Rec-assay, spot test, DNA effects (bacterial DNA repair), Assay Code: REW+, Evaluation Type: Evaluation A (Pre-1980)) and “active; positive” under setting [10].

With `CCN(CC)c1ccc2c(-c3ccc(C(=O)O)cc3C(=O)[O-])c3ccc(=[N+](CC)CC)cc-3oc2c1`, the mutagenic call is “inactive; negative” (Species/Cell Type: Mammalian polychromatic erythrocytes, Assay Type: Micronucleus test, chromosome aberrations, Assay Code: MNT-, Evaluation Type: Evaluation B (Post-1980)) and “active; positive” under setting [9].

On to `COC(=O)[C@H](N)Cc1cnc[nH]1`, for which the mutagenic call under setting [6] was “inactive; negative”.
